Laboratory results from PubChem BioAssay (NCI).
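Briefly, cells in 96-well plates were exposed to five compound concentrations for 48 h, and endpoints were estimated by linear interpolation. GI50: concentration for 50% inhibition of growth. At the TGI there is no net growth.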

How the values were obtained:
Assay in all cases: growth of human tumour cells (NCI), 48 h
[1] = system: 786-0 renal
[2] = system: DU-145 prostate
[3] = system: HCT-15 colon
[4] = system: HT29 colon
[5] = system: NCI-H226 lung
[6] = system: NCI/ADR-RES ovarian
[7] = system: PC-3 prostate
[8] = system: RXF 393 renal
[9] = system: SN12C renal
[10] = system: SW-620 colon

Structure (SMILES): Clc1[nH]nc2ccccc12
- TGI [1]: > 100 µM
- TGI [2]: > 100 µM
- TGI [3]: > 100 µM
- TGI [4]: > 100 µM
- TGI [5]: > 100 µM
- TGI [6]: > 100 µM
- TGI [7]: > 100 µM
- TGI [8]: > 100 µM
- TGI [9]: > 100 µM
- TGI [10]: > 100 µM

Structure (SMILES): CCNC(=S)N/N=C(/C)c1cccc(/C(C)=N\NC(=S)NCC)n1
- TGI [1]: > 100 µM
- TGI [2]: > 36.6 µM
- TGI [3]: > 57 µM
- TGI [4]: 46.2 µM
- TGI [5]: 7.39 µM
- TGI [6]: 21.1 µM
- TGI [7]: > 100 µM
- TGI [8]: 33.5 µM
- TGI [9]: > 65.6 µM
- TGI [10]: > 100 µM

Structure (SMILES): Cc1ccc(S(=O)(=O)N/N=c2/sc3ccccc3n2C)cc1
- TGI [1]: > 100 µM
- TGI [2]: > 100 µM
- TGI [3]: > 100 µM
- TGI [4]: > 100 µM
- TGI [5]: > 100 µM
- TGI [6]: > 100 µM
- TGI [7]: > 100 µM
- TGI [8]: > 100 µM
- TGI [9]: > 100 µM
- TGI [10]: > 100 µM

Structure (SMILES): [N-]=[N+]=CC(=O)C1CCN(c2ccccc2)C1=O (stereo not drawn)
- TGI [1]: > 10 µM
- TGI [2]: > 10 µM
- TGI [3]: > 10 µM
- TGI [4]: > 10 µM
- TGI [5]: > 10 µM
- TGI [6]: > 10 µM
- TGI [7]: > 10 µM
- TGI [8]: > 10 µM
- TGI [9]: > 10 µM
- TGI [10]: > 10 µM

Structure (SMILES): O=c1c2ccc(Cl)cc2oc2c(CSc3ccccc3)cccc12
- TGI [1]: > 100 µM
- TGI [2]: > 100 µM
- TGI [3]: > 100 µM
- TGI [4]: > 100 µM
- TGI [5]: > 100 µM
- TGI [6]: > 100 µM
- TGI [7]: > 100 µM
- TGI [8]: > 100 µM
- TGI [9]: > 100 µM
- TGI [10]: > 31.6 µM

Structure (SMILES): CC(=O)Oc1cc2c(cc1OCC(F)(F)F)[C@H]1CC[C@]3(C)[C@@H](OC(C)=O)CC[C@H]3[C@@H]1CC2=O
- TGI [1]: > 100 µM
- TGI [2]: 51.6 µM
- TGI [3]: > 88 µM
- TGI [4]: > 63.8 µM
- TGI [5]: > 100 µM
- TGI [6]: 43.6 µM
- TGI [7]: 37.6 µM
- TGI [8]: 50 µM
- TGI [9]: 57.6 µM
- TGI [10]: > 92.4 µM

Structure (SMILES): Nc1c(C(=O)O)c2ccc([N+](=O)[O-])cc2c(=O)n1-c1nc2ccccc2s1
- TGI [1]: > 100 µM
- TGI [2]: > 100 µM
- TGI [3]: > 100 µM
- TGI [4]: > 100 µM
- TGI [5]: > 100 µM
- TGI [6]: > 100 µM
- TGI [7]: > 100 µM
- TGI [8]: > 100 µM
- TGI [9]: > 100 µM
- TGI [10]: > 100 µM

Structure (SMILES): CC1=NC(=N)N=C(C)C1N=Nc1ccc2nc(C)[nH]c2c1 (stereo not drawn)
- TGI [1]: > 100 µM
- TGI [2]: > 100 µM
- TGI [3]: > 100 µM
- TGI [4]: > 100 µM
- TGI [5]: > 100 µM
- TGI [6]: > 100 µM
- TGI [7]: > 100 µM
- TGI [8]: > 100 µM
- TGI [9]: > 100 µM
- TGI [10]: > 100 µM

Structure (SMILES): Cn1c(CO)ccc1-c1ccc(-c2ccc(CO)[se]2)[se]1
- TGI [1]: > 76 µM
- TGI [2]: > 100 µM
- TGI [3]: > 70.6 µM
- TGI [4]: > 100 µM
- TGI [5]: 2.56 µM
- TGI [6]: > 100 µM
- TGI [7]: > 100 µM
- TGI [8]: > 100 µM
- TGI [9]: > 100 µM
- TGI [10]: > 100 µM

Structure (SMILES): CC(C)=CC1C(C(=O)OCc2cc3c(cc2Cl)OCO3)C1(C)C (stereo not drawn)
- TGI [1]: > 100 µM
- TGI [2]: > 100 µM
- TGI [3]: > 100 µM
- TGI [4]: > 100 µM
- TGI [5]: > 100 µM
- TGI [6]: > 100 µM
- TGI [7]: 36 µM
- TGI [8]: > 100 µM
- TGI [9]: > 100 µM
- TGI [10]: > 100 µM

Structure (SMILES): COc1ccc2oc(=O)c(-c3cc4c(c(C)n3)c(=O)oc3ccc(OC)cc34)cc2c1
- TGI [1]: 4.34 µM
- TGI [2]: > 100 µM
- TGI [3]: > 100 µM
- TGI [4]: > 100 µM
- TGI [5]: > 100 µM
- TGI [6]: > 100 µM
- TGI [7]: > 100 µM
- TGI [8]: > 100 µM
- TGI [9]: > 100 µM
- TGI [10]: > 100 µM

Structure (SMILES): CC(C)OC(=O)C(NC(=O)C(CC(=O)OCc1ccccc1)NC(=O)OCc1ccccc1)NC(=O)C1C(C)(C)CCC1(C)C (stereo not drawn)
- TGI [1]: 5.3 µM
- TGI [2]: > 52.4 µM
- TGI [3]: 30.7 µM
- TGI [4]: 14.3 µM
- TGI [5]: 22.8 µM
- TGI [6]: 21.2 µM
- TGI [7]: 11.2 µM
- TGI [8]: 12.7 µM
- TGI [9]: 15.1 µM
- TGI [10]: 10.8 µM

Structure (SMILES): COCc1cc2c(s1)C(=O)C1=C(C2=O)C2(C=C(Br)C(=O)C(Br)=C2)CCN1
- TGI [1]: 16.3 µM
- TGI [2]: 29.8 µM
- TGI [3]: 14.7 µM
- TGI [4]: 12.9 µM
- TGI [5]: 26.7 µM
- TGI [6]: 9.41 µM
- TGI [7]: 12.1 µM
- TGI [8]: 6.94 µM
- TGI [9]: 20.4 µM
- TGI [10]: 10.6 µM

Structure (SMILES): CN(C)c1cccc2c(S(=O)(=O)NCCN)cccc12
- TGI [1]: > 100 µM
- TGI [2]: > 100 µM
- TGI [3]: > 100 µM
- TGI [4]: > 100 µM
- TGI [5]: > 100 µM
- TGI [6]: > 100 µM
- TGI [7]: > 100 µM
- TGI [8]: > 100 µM
- TGI [9]: > 100 µM
- TGI [10]: > 100 µM

Structure (SMILES): O=C(Nc1cccc2ccccc12)c1cc2ccccc2oc1=O
- TGI [1]: 50.3 µM
- TGI [2]: > 100 µM
- TGI [3]: > 100 µM
- TGI [4]: > 100 µM
- TGI [5]: 54.4 µM
- TGI [6]: > 100 µM
- TGI [7]: > 100 µM
- TGI [8]: > 100 µM
- TGI [9]: > 100 µM
- TGI [10]: > 100 µM

Structure (SMILES): CN(Cc1cnc2nc(N)nc(N)c2n1)c1ccc(C(=O)NC(CCC(=O)O)C(=O)O)c2ccccc12 (stereo not drawn)
- TGI [1]: > 1000 µM
- TGI [2]: > 1000 µM
- TGI [3]: > 1000 µM
- TGI [4]: > 1000 µM
- GI50 [5]: > 1000 µM
- TGI [5]: > 1000 µM
- TGI [6]: > 1000 µM
- GI50 [7]: 89.8 µM
- TGI [7]: > 1000 µM
- GI50 [8]: > 1000 µM
- TGI [8]: > 1000 µM
- TGI [9]: > 1000 µM
- TGI [10]: > 1000 µM

Structure (SMILES): CCc1c(O)nc(Nc2nc3ccccc3[nH]2)[nH]c1=O
- TGI [1]: > 100 µM
- TGI [2]: > 100 µM
- TGI [3]: > 100 µM
- TGI [4]: > 100 µM
- TGI [5]: > 100 µM
- TGI [6]: > 100 µM
- TGI [7]: > 100 µM
- TGI [8]: > 100 µM
- TGI [9]: > 100 µM
- TGI [10]: > 100 µM
